{"source": "ChEMBL document CHEMBL1137152", "about": "“Copper dipicolinates as peptidomimetic ligands for the Src SH2 domain” (Bioorg Med Chem Lett, 2004)", "data": [{"biological_target": "T1, Proto-oncogene tyrosine-protein kinase Src (Homo sapiens, UniProt P12931)", "T1 sequence (P12931 2-536 limits assumed)": "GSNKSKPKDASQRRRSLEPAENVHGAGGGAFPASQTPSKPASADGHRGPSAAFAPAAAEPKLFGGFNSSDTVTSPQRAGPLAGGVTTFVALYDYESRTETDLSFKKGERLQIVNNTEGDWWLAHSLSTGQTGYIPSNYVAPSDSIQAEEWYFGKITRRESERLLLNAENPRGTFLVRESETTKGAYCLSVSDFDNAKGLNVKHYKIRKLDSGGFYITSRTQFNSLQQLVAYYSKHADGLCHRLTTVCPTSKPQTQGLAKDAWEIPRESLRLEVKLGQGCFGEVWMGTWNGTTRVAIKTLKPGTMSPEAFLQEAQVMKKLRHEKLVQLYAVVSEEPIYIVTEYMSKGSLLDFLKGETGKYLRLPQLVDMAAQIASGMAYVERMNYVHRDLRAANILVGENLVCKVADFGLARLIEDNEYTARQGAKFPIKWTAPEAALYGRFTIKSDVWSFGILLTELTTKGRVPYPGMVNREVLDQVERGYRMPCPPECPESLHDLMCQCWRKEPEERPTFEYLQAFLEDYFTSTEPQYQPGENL", "test": "Inhibition of fluorescent (GpYEEI) binding to Src protein tyrosine kinase SH2 domain; NA = No significant inhibition; call rule not given here", "values": [{"compound": "COC(=O)c1cc(OCC(=O)N[C@H](C(=O)NCc2cccc(OC)c2)c2ccccc2)cc(C(=O)OC)n1", "IC50": "Not Active"}]}, {"biological_target": "T1, Proto-oncogene tyrosine-protein kinase Src", "test": "Inhibition of fluorescent (GpYEEI) binding to Src protein tyrosine kinase SH2 domain", "units": {"IC50": "µM"}, "values": [{"compound": "COC(=O)c1cc(OCC(=O)N[C@@H](Cc2ccccc2)C(=O)NCc2cccc(OC)c2)cc(C(=O)OC)n1", "IC50": 663}, {"compound": "COC(=O)c1cc(OCC(=O)N[C@@H](CC(C)C)C(=O)NCc2cccc(OC)c2)cc(C(=O)OC)n1", "IC50": 713}, {"compound": "COC(=O)c1cc(OCC(=O)N[C@H](C(=O)NCc2ccc3c(c2)OCO3)c2ccccc2)cc(C(=O)OC)n1", "IC50": 714}, {"compound": "COC(=O)c1cc(OCC(=O)N[C@@H](Cc2ccccc2)C(=O)NCc2ccc3c(c2)OCO3)cc(C(=O)OC)n1", "IC50": 396}, {"compound": "COc1ccc(CNC(=O)[C@H](CC(C)C)NC(=O)COc2cc(C(=O)O)cc(C(=O)O)c2)cc1", "IC50": 864}]}]}
